Source: patent publication US10729135B2, “Methods of controlling pests using terpendoles” (priority 2017, dated 2020)

Tested on: green peach aphids (Myzus persicae)
Assay: LC50 biological efficacy assay on green peach aphids, aerosolized dilutions on infested radish leaves
Format: in vivo
Conditions: for LC50: concentration for 50% control over 24-48 hours, infested radish leaves, 500 μl aerosolized dilution; for control of green peach aphids (in words): summary of Table 1
Protocol: Biological efficacy assays utilizing terpendoles were conducted on green peach aphids (Myzus persicae). Specifically, terpendole A, terpendole C, terpendole J, terpendole K, terpendole N, terpendole O and terpendole P were each separately applied in serial dilutions to determine the concentration at which 50% control of green peach aphids occurred over a period of 24-48 hours (“LC50”). Radish leaves infested with green peach aphids were treated, top and bottom, with a total of 500 μl of an aerosolized terpendole dilution. Treated, aphid infested leaves were held in greenhouse conditions and evaluated for efficacy at 24 and 48 h.

Compound | LC50 | control of green peach aphids (in words)
CC1(C)OC1[C@H]1O[C@H]2[C@H]3O[C@@]34[C@H](CC[C@@]3(C)[C@@]4(O)CC[C@H]4Cc5c([nH]c6ccccc56)[C@@]43C)O[C@@H]2C(C)(C)O1 (stereo partly drawn) [Terpendole A, terpendole A] | 7 ppm | effectively controlled
CC(C)=CCOC(C)(C)[C@H]1O[C@H]2CC[C@@]3(C)[C@@](O)(CC[C@H]4Cc5c([nH]c6ccccc56)[C@@]43C)[C@]23O[C@@H]3[C@@H]1O [Terpendole J, terpendole J] | 5,183 ppm | effectively controlled
CC(C)=C[C@H]1O[C@H]2[C@H]3O[C@@]34C(=CC[C@@]3(C)[C@@]4(O)CC[C@H]4Cc5c([nH]c6ccccc56)[C@@]43C)O[C@@H]2C(C)(C)O1 [Terpendole K, terpendole K] | 44 ppm | effectively controlled
CC(C)=C[C@@H]1O[C@H]2[C@@H](O[C@@H]3CC[C@]4(C)[C@](O)(CC[C@H](CC5(O)C(=O)Nc6cccc(CC7OC7(C)C)c65)[C@@]4(C)O)[C@@]34O[C@@H]24)C(C)(C)O1 (stereo partly drawn) [Terpendole N, terpendole N] | 4 ppm | effectively controlled
CC(C)=CCc1cccc2[nH]c3c(c12)C[C@@H]1CC[C@@]2(O)[C@@]45O[C@@H]4[C@@H]4O[C@H](C6OC6(C)C)OC(C)(C)[C@H]4O[C@H]5CC[C@]2(C)[C@@]31C (stereo partly drawn) [Terpendole O, terpendole O] | 105 ppm | effectively controlled
CC(C)=CCc1ccc2c3c([nH]c2c1)[C@@]1(C)[C@@H](CC[C@@]2(O)[C@@]45O[C@@H]4[C@@H]4O[C@H](C6OC6(C)C)OC(C)(C)[C@H]4O[C@H]5CC[C@@]21C)C3 (stereo partly drawn) [Terpendole P, terpendole P] | 67 ppm | effectively controlled
